Data taken from publication PMC5175178, “Development of an in-vivo active reversible butyrylcholinesterase inhibitor” (Scientific Reports, 2016).

Key:
huBChE = biological target: T1, huBChE (Homo sapiens, UniProt P06276); assay: Kinetic studies for huBChE inhibition, stopped-flow progress curves; format: biochemical; conditions: hydrolysis by huBChE, pH 8
T1 construct: made in house
Procedure: This situation is referred to as tight binding inhibition. […] Of note, a high enzyme concentration was used in order to investigate the time-dependent inhibition and to reach the plateau of the reaction, which allowed precise quantification of the substrate concentration. […] The curves were analyzed simultaneously using the ENZO application[36].
Briefly, the time-course of yellow color formation was followed on a Bio-logic SFM-2000 stopped flow apparatus at 25 °C. […] The buffer solutions were injected into a mixing chamber using syringes. […] The progress curves obtained were analyzed simultaneously, using the ENZO application[36], which can derive and numerically solve a system of differential equations, and fit their coefficients. Several reaction mechanisms were tested.

ABCB1 = assay: Caco-2 monolayer bidirectional permeability assay; conditions: human; for Papp A→B at 120 min: Caco-2, apical-to-basolateral apparent permeability coefficient; for Papp B→A at 120 min: Caco-2, basolateral-to-apical apparent permeability coefficient
Procedure: (§1) They were grown on Transwell® culture inserts with a polycarbonate membrane (diameter, 12 mm; pore size, 0.4 µm). 50,000 cells/filter membranes were used for seeding and the medium was changed every two days. At day 18, transepithelial electrical resistance (TEER) was measured for each filter with Caco-2 cell monolayers. […] The samples were acidified by dilution with the same volume of 0.01M HCl before fluorescence measurements.
(§2) Ringer buffer with 10 mM d-glucose or 10 mM mannitol on apical and basolateral side of the tissue, respectively, was used as an incubation saline. […] The stock solutions were added either to the apical or to the basolateral compartment to obtain bidirectional permeability measurements. Six samples were withdrawn in 20 min intervals. Each time 300 µl was taken from the 1500 µL basolateral acceptor compartment and 100 µL from the 500 µL apical acceptor compartment. These volumes were immediately replaced by the appropriate fresh incubation saline. […] All apparent permeability coefficients were calculated as described previously^24.

Caco-2 cells = assay: Caco-2 monolayer bidirectional permeability assay; conditions: ABCB1 marker substrate, no inhibitor
Procedure: as §1, §2

T1 sequence (P06276 29-602): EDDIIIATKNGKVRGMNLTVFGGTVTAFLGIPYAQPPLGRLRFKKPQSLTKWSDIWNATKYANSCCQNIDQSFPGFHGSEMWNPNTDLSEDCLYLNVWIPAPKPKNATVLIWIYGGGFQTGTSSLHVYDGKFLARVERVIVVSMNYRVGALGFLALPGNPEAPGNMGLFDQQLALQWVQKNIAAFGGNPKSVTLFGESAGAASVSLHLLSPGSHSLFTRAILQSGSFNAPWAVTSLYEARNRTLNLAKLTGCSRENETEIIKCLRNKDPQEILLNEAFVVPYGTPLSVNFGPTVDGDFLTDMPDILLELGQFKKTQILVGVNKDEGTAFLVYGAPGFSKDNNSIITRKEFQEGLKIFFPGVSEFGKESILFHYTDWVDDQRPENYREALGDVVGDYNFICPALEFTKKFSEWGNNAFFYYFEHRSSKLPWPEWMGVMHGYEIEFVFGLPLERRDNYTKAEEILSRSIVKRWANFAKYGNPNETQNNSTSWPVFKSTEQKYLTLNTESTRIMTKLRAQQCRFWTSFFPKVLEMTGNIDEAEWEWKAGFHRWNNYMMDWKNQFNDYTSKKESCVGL

| Structure (SMILES) | kcat (s^-1) ± SD (huBChE) [s⁻¹] | Km (huBChE; read-out: Km (µM) ± SD) [µM] | efflux ratio at 120 min (ABCB1; Caco-2) | Papp A→B at 120 min (ABCB1; after inhibition with PSC833) [×10⁻⁶ cm/s] | Papp A→B at 120 min (ABCB1; no inhibitor) [×10⁻⁶ cm/s] | Papp B→A at 120 min (ABCB1; after inhibition with PSC833) [×10⁻⁶ cm/s] | Papp B→A at 120 min (ABCB1; no inhibitor) [×10⁻⁶ cm/s] | efflux ratio (Caco-2 cells) |
| --- | --- | --- | --- | --- | --- | --- | --- | --- |
| CCCC(=O)SCC[N+](C)(C)C.[I-] [BTCI, butyrylthiocholine iodide] | 852 ± 8 | 38.5 ± 0.3 |  |  |  |  |  |  |
| COC(=O)c1ccccc1-c1c2ccc(=N)cc-2oc2cc(N)ccc12 [Rhodamine123] |  |  | 2.5 | 1 | 1.1 | 2.5 | 7.7 | 7.3 |
